Source: PubChem BioAssay AID250 (DTP/NCI, 2004)
Values joined by “and” are separate entries in the source; they are usually repeats but may differ in a detail not shown here. Equal values may be shown once. Inconclusive results and toxic doses are left out. Rule for the calls: active = survival T/C of 150% or more; inactive = T/C below 125% in these data.

Tested on: BDF1 mice, L1210 leukemia sc, survival T/C
Experiment: NCI In Vivo Anticancer Drug Screen. Data for tumor model L1210 Leukemia (subcutaneous) in B6D2F1 (BDF1) mice
Conditions: endpoint: median survival time, higher = longer survival
Procedure: The antitumor activity of compounds was measured in mice bearing transplantable tumors. Survival or tumor size were measured and the results are expressed as the measurement made in the treated group (T) divided by the measurement made in the vehicle treated control group (C). The tumor model used in this assay is L1210 Leukemia (subcutaneous) in B6D2F1 (BDF1) mice

[1] = dose: 23.0 mg/kg/injection, schedule: Q01DX Z (sc), vehicle: water

Measured: T/C

Cn1cnc([N+](=O)[O-])c1Sc1nc(N)nc2nc[nH]c12
active: dose: 47.0 mg/kg/injection, schedule: Q01DX Z (sc), vehicle: methylcellulose (MC) 150 % of control | dose: 65.0 mg/kg/injection, schedule: Q01DX Z (oral), vehicle: methylcellulose (MC) 154 % of control | dose: 108.0 mg/kg/injection, schedule: Q01DX Z (oral), vehicle: methylcellulose (MC) 154 % of control
inactive: dose: 1.3 mg/kg/injection, schedule: Q01DX Z (sc), vehicle: methylcellulose (MC) 110 % of control | dose: 2.16 mg/kg/injection, schedule: Q01DX Z (sc), vehicle: methylcellulose (MC) 90 % of control and 110 % of control | dose: 3.0 mg/kg/injection, schedule: Q01DX Z (sc), vehicle: methylcellulose (MC) 109 % of control | dose: 3.6 mg/kg/injection, schedule: Q01DX Z (oral), vehicle: methylcellulose (MC) 100 % of control | dose: 3.6 mg/kg/injection, schedule: Q01DX Z (sc), vehicle: methylcellulose (MC) 100 % of control | dose: 5.0 mg/kg/injection, schedule: Q01DX Z (sc), vehicle: methylcellulose (MC) 118 % of control | dose: 6.0 mg/kg/injection, schedule: Q01DX Z (oral), vehicle: methylcellulose (MC) 109 % of control | dose: 8.4 mg/kg/injection, schedule: Q01DX Z (oral), vehicle: methylcellulose (MC) 109 % of control | dose: 10.0 mg/kg/injection, schedule: Q01DX Z (oral), vehicle: methylcellulose (MC) 100 % of control | dose: 14.0 mg/kg/injection, schedule: Q01DX Z (oral), vehicle: methylcellulose (MC) 122 % of control | dose: 17.0 mg/kg/injection, schedule: Q01DX Z (oral), vehicle: methylcellulose (MC) 113 % of control | dose: 28.0 mg/kg/injection, schedule: Q01DX Z (oral), vehicle: methylcellulose (MC) 113 % of control | dose: 47.0 mg/kg/injection, schedule: Q01DX Z (oral), vehicle: methylcellulose (MC) 109 % of control | dose: 78.0 mg/kg/injection, schedule: Q01DX Z (oral), vehicle: methylcellulose (MC) 118 % of control | dose: 130.0 mg/kg/injection, schedule: Q01DX Z (oral), vehicle: methylcellulose (MC) 113 % of control | dose: 216.0 mg/kg/injection, schedule: Q01DX Z (oral), vehicle: methylcellulose (MC) 118 % of control

Cc1cc2nc3c(=O)[nH]c(=O)nc-3n(CC(O)C(O)C(O)C(O)CO)c2cc1C (stereo not given)
inactive: dose: 180.0 mg/kg/injection, schedule: Q01DX Z (sc), vehicle: methylcellulose (MC) 100 % of control | dose: 300.0 mg/kg/injection, schedule: Q01DX Z (sc), vehicle: methylcellulose (MC) 100 % of control | dose: 500.0 mg/kg/injection, schedule: Q01DX Z (sc), vehicle: methylcellulose (MC) 100 % of control

O=C(CCN1CC1)OCCOC(=O)CCN1CC1
inactive: dose: 4.7 mg/kg/injection, schedule: Q01DX Z (sc), vehicle: saline 100 % of control | dose: 7.8 mg/kg/injection, schedule: Q01DX Z (sc), vehicle: saline 100 % of control | dose: 13.0 mg/kg/injection, schedule: Q01DX Z (sc), vehicle: saline 100 % of control | dose: 21.0 mg/kg/injection, schedule: Q01DX Z (sc), vehicle: saline 111 % of control

COc1cccc2c1C(=O)c1c(O)c3c(c(O)c1C2=O)C[C@@](O)(C(C)=O)C[C@@H]3OC1CC(N)C(O)C(C)O1 (stereo not given in full)
inactive: dose: 1.0 mg/kg/injection, schedule: Q04DX003 (ip), vehicle: saline 88 % of control | dose: 2.0 mg/kg/injection, schedule: Q04DX003 (ip), vehicle: saline 90 % of control | dose: 3.0 mg/kg/injection, schedule: Q01DX Z (sc), vehicle: saline 95 % of control and 100 % of control | dose: 3.1 mg/kg/injection, schedule: Q01DX Z (sc), vehicle: saline 95 % of control | dose: 4.0 mg/kg/injection, schedule: Q04DX003 (ip), vehicle: saline 89 % of control | dose: 5.0 mg/kg/injection, schedule: Q01DX Z (sc), vehicle: saline 100 % of control and 115 % of control | dose: 5.0 mg/kg/injection, schedule: Q01DX Z (sc), vehicle: water 104 % of control | dose: 5.2 mg/kg/injection, schedule: Q01DX Z (sc), vehicle: saline 100 % of control | dose: 6.5 mg/kg/injection, schedule: Q04DX003 (sc), vehicle: water 105 % of control and 111 % of control | dose: 10.8 mg/kg/injection, schedule: Q04DX003 (sc), vehicle: water 109 % of control and 111 % of control | dose: 14.0 mg/kg/injection, schedule: Q01DX Z (sc), vehicle: saline 120 % of control | dose: 14.0 mg/kg/injection, schedule: Q01DX Z (sc), vehicle: water 123 % of control | dose: 23.0 mg/kg/injection, schedule: Q01DX Z (sc), vehicle: saline 110 % of control and 120 % of control | [1] 109 % of control | dose: 24.0 mg/kg/injection, schedule: Q01DX Z (sc), vehicle: saline 120 % of control | dose: 30.0 mg/kg/injection, schedule: Q04DX003 (sc), vehicle: water 99 % of control and 100 % of control | dose: 39.0 mg/kg/injection, schedule: Q01DX Z (sc), vehicle: saline 110 % of control | dose: 39.0 mg/kg/injection, schedule: Q01DX Z (sc), vehicle: water 104 % of control | dose: 40.0 mg/kg/injection, schedule: Q01DX Z (sc), vehicle: saline 110 % of control | dose: 65.0 mg/kg/injection, schedule: Q01DX Z (sc), vehicle: water 95 % of control
active: dose: 8.4 mg/kg/injection, schedule: Q01DX Z (sc), vehicle: saline 150 % of control

Nc1ccn(C2CC(O)C(CO)O2)c(=O)n1 (stereo not given)
inactive: dose: 37.5 mg/kg/injection, schedule: Q06HX018 (sc), vehicle: water 108 % of control | dose: 37.5 mg/kg/injection, schedule: Q## X018 (sc), vehicle: water 111 % of control | dose: 75.0 mg/kg/injection, schedule: Q03HX008 (sc), vehicle: water 90 % of control and 93 % of control | dose: 75.0 mg/kg/injection, schedule: Q06HX018 (sc), vehicle: water 102 % of control | dose: 75.0 mg/kg/injection, schedule: Q## X018 (sc), vehicle: water 100 % of control | dose: 150.0 mg/kg/injection, schedule: Q03HX008 (sc), vehicle: water 100 % of control and 102 % of control | dose: 150.0 mg/kg/injection, schedule: Q06HX018 (sc), vehicle: water 98 % of control | dose: 150.0 mg/kg/injection, schedule: Q## X018 (sc), vehicle: water 100 % of control | dose: 300.0 mg/kg/injection, schedule: Q06HX018 (sc), vehicle: water 106 % of control | dose: 300.0 mg/kg/injection, schedule: Q## X018 (sc), vehicle: water 105 % of control

Nc1nc(=S)c2ncn(C3CC(O)C(CO)O3)c2[nH]1 (stereo not given)
active: dose: 9.0 mg/kg/injection, schedule: Q02DX005 (sc), vehicle: saline 160 % of control | dose: 12.5 mg/kg/injection, schedule: Q02DX005 (sc), vehicle: saline 177 % of control | dose: 18.0 mg/kg/injection, schedule: Q02DX005 (sc), vehicle: saline 162 % of control | dose: 25.0 mg/kg/injection, schedule: Q02DX005 (sc), vehicle: saline 177 % of control | dose: 37.0 mg/kg/injection, schedule: Q02DX005 (sc), vehicle: saline 152 % of control | dose: 50.0 mg/kg/injection, schedule: Q02DX005 (sc), vehicle: saline 177 % of control | dose: 100.0 mg/kg/injection, schedule: Q02DX005 (sc), vehicle: saline 150 % of control | dose: 400.0 mg/kg/injection, schedule: Q01DX009 (sc), vehicle: saline 155 % of control | dose: 600.0 mg/kg/injection, schedule: Q02DX005 (sc), vehicle: saline 158 % of control
inactive: dose: 50.0 mg/kg/injection, schedule: Q01DX009 (sc), vehicle: saline 100 % of control and 103 % of control | dose: 100.0 mg/kg/injection, schedule: Q01DX009 (sc), vehicle: saline 105 % of control and 108 % of control | dose: 150.0 mg/kg/injection, schedule: Q02DX005 (sc), vehicle: saline 120 % of control | dose: 200.0 mg/kg/injection, schedule: Q01DX009 (sc), vehicle: saline 122 % of control

CN(Cc1cnc2nc(N)nc(N)c2n1)c1c(Cl)cc(C(=O)NC(CCC(=O)O)C(=O)O)cc1Cl (stereo not given)
active: dose: 14.0 mg/kg/injection, schedule: Q01DX Z (sc), vehicle: sodium bicarbonate 245 % of control | dose: 23.0 mg/kg/injection, schedule: Q01DX Z (sc), vehicle: sodium bicarbonate 259 % of control | dose: 39.0 mg/kg/injection, schedule: Q01DX Z (sc), vehicle: sodium bicarbonate 427 % of control | dose: 100.0 mg/kg/injection, schedule: Q01DX Z (sc), vehicle: other 154 % of control

C[n+]1c2cc(N)ccc2cc2ccc(N)cc21
inactive: [1] 90 % of control and 100 % of control
